Measured values taken from ChEMBL document CHEMBL1148993, “UV-mediated genotoxicity of furanoquinoline and of certain tryptophan-derived alkaloids” (J Nat Prod, 1983).
Counter-ions that a name gives are not always drawn.

Assays:
[1] = system: Pseudomonas aeruginosa; test: Phototoxicity against Pseudomonas aeruginosa at 10 ug/disk in dark; type: functional; conditions: light or radiation study, read-out: IZ
[2] = system: Staphylococcus aureus; test: Phototoxicity against Staphylococcus aureus at 10 ug/disk in dark; type: functional; conditions: light or radiation study, read-out: IZ
[3] = system: Bacillus subtilis; test: Phototoxicity against Bacillus subtilis at 10 ug/disk in dark; type: functional; conditions: light or radiation study, read-out: IZ
[4] = system: Bacillus subtilis; test: Phototoxicity against Bacillus subtilis at 10 ug/disk after irradiation with W/m'2 UV light; type: functional; conditions: light or radiation study, read-out: IZ
[5] = system: CHO; test: Genotoxicity in CHO cells assessed as mitotic inhibition at 0.2 ppm after 60 mins in dark followed by 5 W/m'2 UV irradiation for 30 mins; type: toxicity, cell-based, Cricetulus griseus; conditions: chinese hamster, 0.5 h
[6] = system: Candida albicans; test: Phototoxicity against Candida albicans at 10 ug/disk after irradiation with W/m'2 UV light; type: functional; conditions: light or radiation study, read-out: IZ
[7] = system: Pseudomonas fluorescens; test: Phototoxicity against Pseudomonas fluorescens at 10 ug/disk in dark; type: functional; conditions: light or radiation study, read-out: IZ
[8] = system: Escherichia coli; test: Phototoxicity against Escherichia coli at 10 ug/disk in dark; type: functional; conditions: light or radiation study, read-out: IZ
[9] = system: Saccharomyces cerevisiae; test: Phototoxicity against Saccharomyces cerevisiae at 10 ug/disk after irradiation with W/m'2 UV light; type: functional; conditions: light or radiation study, read-out: IZ
[10] = system: Staphylococcus aureus; test: Phototoxicity against Staphylococcus aureus at 10 ug/disk after irradiation with W/m'2 UV light; type: functional; conditions: light or radiation study, read-out: IZ
[11] = system: Enterococcus faecalis; test: Phototoxicity against Streptococcus faecalis at 10 ug/disk in dark; type: functional; conditions: light or radiation study, read-out: IZ
[12] = system: Enterococcus faecalis; test: Phototoxicity against Streptococcus faecalis at 10 ug/disk after irradiation with W/m'2 UV light; type: functional; conditions: light or radiation study, read-out: IZ
[13] = system: CHO; test: Genotoxicity in CHO cells assessed as chromosomal aberrations at 0.04 ppm after 60 mins in dark followed by 5 W/m'2 UV irradiation for 30 mins; type: toxicity, cell-based, Cricetulus griseus; conditions: chinese hamster, 0.5 h
[14] = system: CHO; test: Genotoxicity in CHO cells assessed as chromosomal aberrations at 0.3 ppm after 90 mins in dark; type: toxicity, cell-based, Cricetulus griseus; conditions: chinese hamster, 1.5 h
[15] = system: Candida albicans; test: Phototoxicity against Candida albicans at 10 ug/disk in dark; type: functional; conditions: light or radiation study, read-out: IZ
[16] = system: CHO; test: Genotoxicity in CHO cells assessed as chromosomal aberrations at 0.02 ppm after 60 mins in dark followed by 5 W/m'2 UV irradiation for 30 mins; type: toxicity, cell-based, Cricetulus griseus; conditions: chinese hamster, 0.5 h
[17] = system: Saccharomyces cerevisiae; test: Phototoxicity against Saccharomyces cerevisiae at 10 ug/disk in dark; type: functional; conditions: light or radiation study, read-out: IZ
[18] = system: CHO; test: Genotoxicity in CHO cells assessed as chromosomal aberrations at 0.1 ppm after 60 mins in dark followed by 5 W/m'2 UV irradiation for 30 mins; type: toxicity, cell-based, Cricetulus griseus; conditions: chinese hamster, 0.5 h
[19] = system: Pseudomonas fluorescens; test: Phototoxicity against Pseudomonas fluorescens at 10 ug/disk after irradiation with W/m'2 UV light; type: functional; conditions: light or radiation study, read-out: IZ
[20] = system: Pseudomonas aeruginosa; test: Phototoxicity against Pseudomonas aeruginosa at 10 ug/disk after irradiation with W/m'2 UV light; type: functional; conditions: light or radiation study, read-out: IZ
[21] = system: Escherichia coli; test: Phototoxicity against Escherichia coli at 10 ug/disk after irradiation with W/m'2 UV light; type: functional; conditions: light or radiation study, read-out: IZ
[22] = Genotoxicity in CHO cells assessed as mitotic inhibition at 0.62 ppm after 60 mins in dark followed by 5 W/m'2 UV irradiation for 30 mins; type: toxicity, cell-based, Cricetulus griseus; conditions: chinese hamster, CHO cells; read-out: Activity
[23] = system: CHO; test: Genotoxicity in CHO cells assessed as chromosomal aberrations at 100 ppm after 60 mins in dark followed by 5 W/m'2 UV irradiation for 30 mins; type: toxicity, cell-based, Cricetulus griseus; conditions: chinese hamster, 0.5 h
[24] = system: CHO; test: Genotoxicity in CHO cells assessed as chromosomal aberrations at 50 ppm after 60 mins in dark followed by 5 W/m'2 UV irradiation for 30 mins; type: toxicity, cell-based, Cricetulus griseus; conditions: chinese hamster
[25] = system: CHO; test: Genotoxicity in CHO cells assessed as mitotic inhibition at 6.3 ppm after 60 mins in dark followed by 5 W/m'2 UV irradiation for 30 mins; type: toxicity, cell-based, Cricetulus griseus; conditions: chinese hamster, 0.5 h
[26] = system: CHO; test: Phototoxicity against CHO cells at 25 ppm; type: cell-based, Cricetulus griseus; conditions: chinese hamster
[27] = system: CHO; test: Genotoxicity in CHO cells assessed as chromosomal aberrations at 100 ppm after 90 mins in dark; type: toxicity, cell-based, Cricetulus griseus; conditions: chinese hamster, 1.5 h
[28] = system: CHO; test: Genotoxicity in CHO cells assessed as chromosomal aberrations at 12.5 ppm after 60 mins in dark followed by 5 W/m'2 UV irradiation for 30 mins; type: toxicity, cell-based, Cricetulus griseus; conditions: chinese hamster, 0.5 h
[29] = system: CHO; test: Phototoxicity against CHO cells assessed as mitotic inhibition at 12 ppm after UV irradiation; type: cell-based, Cricetulus griseus; conditions: chinese hamster
[30] = system: CHO; test: Genotoxicity in CHO cells assessed as chromosomal aberrations at 25 ppm after 60 mins in dark followed by 5 W/m'2 UV irradiation for 30 mins; type: toxicity, cell-based, Cricetulus griseus; conditions: chinese hamster
[31] = system: CHO; test: Genotoxicity in CHO cells assessed as chromosomal aberrations at 6.2 ppm after 60 mins in dark followed by 5 W/m'2 UV irradiation for 30 mins; type: toxicity, cell-based, Cricetulus griseus; conditions: chinese hamster, 0.5 h
[32] = system: CHO; test: Genotoxicity in CHO cells assessed as chromosomal aberrations at 3.1 ppm after 60 mins in dark followed by 5 W/m'2 UV irradiation for 30 mins; type: toxicity, cell-based, Cricetulus griseus; conditions: chinese hamster, 0.5 h
[33] = system: CHO; test: Genotoxicity in CHO cells assessed as chromosomal aberrations at 50 ppm after 90 mins in dark; type: toxicity, cell-based, Cricetulus griseus; conditions: chinese hamster, 1.5 h
[34] = system: CHO; test: Genotoxicity in CHO cells assessed as chromosomal aberrations at 0.4 ppm after 60 mins in dark followed by 5 W/m'2 UV irradiation for 30 mins; type: toxicity, cell-based, Cricetulus griseus; conditions: chinese hamster, 0.5 h
[35] = system: CHO; test: Genotoxicity in CHO cells assessed as chromosomal aberrations at 0.8 ppm after 60 mins in dark followed by 5 W/m'2 UV irradiation for 30 mins; type: toxicity, cell-based, Cricetulus griseus; conditions: chinese hamster, 0.5 h
[36] = system: Saccharomyces cerevisiae; test: Phototoxicity against Saccharomyces cerevisiae at 100 ug/disk in dark; type: functional; conditions: light or radiation study, read-out: IZ
[37] = system: Staphylococcus aureus; test: Phototoxicity against Staphylococcus aureus at 100 ug/disk after irradiation with W/m'2 UV light; type: functional; conditions: light or radiation study, read-out: IZ
[38] = system: Candida albicans; test: Phototoxicity against Candida albicans at 100 ug/disk after irradiation with W/m'2 UV light; type: functional; conditions: light or radiation study, read-out: IZ
[39] = system: Escherichia coli; test: Phototoxicity against Escherichia coli at 100 ug/disk after irradiation with W/m'2 UV light; type: functional; conditions: light or radiation study, read-out: IZ
[40] = system: Candida albicans; test: Phototoxicity against Candida albicans at 100 ug/disk in dark; type: functional; conditions: light or radiation study, read-out: IZ
[41] = system: Pseudomonas aeruginosa; test: Phototoxicity against Pseudomonas aeruginosa at 100 ug/disk after irradiation with W/m'2 UV light; type: functional; conditions: light or radiation study, read-out: IZ
[42] = system: Escherichia coli; test: Phototoxicity against Escherichia coli at 100 ug/disk in dark; type: functional; conditions: light or radiation study, read-out: IZ
[43] = system: Staphylococcus aureus; test: Phototoxicity against Staphylococcus aureus at 100 ug/disk in dark; type: functional; conditions: light or radiation study, read-out: IZ
[44] = system: Pseudomonas fluorescens; test: Phototoxicity against Pseudomonas fluorescens at 100 ug/disk in dark; type: functional; conditions: light or radiation study, read-out: IZ
[45] = system: Saccharomyces cerevisiae; test: Phototoxicity against Saccharomyces cerevisiae at 100 ug/disk after irradiation with W/m'2 UV light; type: functional; conditions: light or radiation study, read-out: IZ
[46] = system: Bacillus subtilis; test: Phototoxicity against Bacillus subtilis at 100 ug/disk in dark; type: functional; conditions: light or radiation study, read-out: IZ
[47] = system: Bacillus subtilis; test: Phototoxicity against Bacillus subtilis at 100 ug/disk after irradiation with W/m'2 UV light; type: functional; conditions: light or radiation study, read-out: IZ
[48] = system: Enterococcus faecalis; test: Phototoxicity against Streptococcus faecalis at 100 ug/disk in dark; type: functional; conditions: light or radiation study, read-out: IZ
[49] = system: Pseudomonas aeruginosa; test: Phototoxicity against Pseudomonas aeruginosa at 100 ug/disk in dark; type: functional; conditions: light or radiation study, read-out: IZ
[50] = system: Enterococcus faecalis; test: Phototoxicity against Streptococcus faecalis at 100 ug/disk after irradiation with W/m'2 UV light; type: functional; conditions: light or radiation study, read-out: IZ
[51] = system: Pseudomonas fluorescens; test: Phototoxicity against Pseudomonas fluorescens at 100 ug/disk after irradiation with W/m'2 UV light; type: functional; conditions: light or radiation study, read-out: IZ
[52] = system: CHO; test: Genotoxicity against CHO cells; type: toxicity, cell-based, Cricetulus griseus; conditions: chinese hamster
[53] = system: CHO; test: Genotoxicity against CHO cells after UV irradiation; type: toxicity, cell-based, Cricetulus griseus; conditions: chinese hamster

COc1c2occc2cc2ccc(=O)oc12 [METHOXSALEN]
zone of inhibition at 10 µg/disc [1]: 0 mm
zone of inhibition at 10 µg/disc [2]: 0 mm
zone of inhibition at 10 µg/disc [3]: 0 mm
zone of inhibition at 10 µg/disc [4]: 14 mm
Activity [5]: Active
zone of inhibition at 10 µg/disc [6]: 14 mm
zone of inhibition at 10 µg/disc [7]: 0 mm
zone of inhibition at 10 µg/disc [8]: 0 mm
zone of inhibition at 10 µg/disc [9]: 19 mm
zone of inhibition at 10 µg/disc [10]: 18 mm
zone of inhibition at 10 µg/disc [11]: 0 mm
zone of inhibition at 10 µg/disc [12]: 14 mm
Activity [13]: 38.8%
Activity [14]: 0%
zone of inhibition at 10 µg/disc [15]: 0 mm
Activity [16]: 7.1%
zone of inhibition at 10 µg/disc [17]: 0 mm
Activity [18]: 63.6%
zone of inhibition at 10 µg/disc [19]: 0 mm
zone of inhibition at 10 µg/disc [20]: 0 mm
zone of inhibition at 10 µg/disc [21]: 14 mm

c1ccc2c(c1)[nH]c1cnccc12 [NORHARMANE]
inhibition at 0.5 h, 0.62 ppm [22]: 0%

C=C[C@H]1C[N@@]2CC[C@H]1C[C@H]2[C@H](O)c1ccnc2ccc(OC)cc12 [QUININE]
Activity [23]: Toxic
Activity [24]: Toxic
Activity [25]: Active
Activity [26]: Active
Activity [27]: 0%
Activity [28]: Toxic
Activity [29]: Active
Activity [30]: Toxic

COc1ccc2c(OC)c3ccoc3nc2c1OC [SKIMMIANINE]
Activity [31]: 59.9%
Activity [32]: 45%
Activity [33]: 0%
Activity [24]: Toxic
Activity [34]: 3%
Activity [28]: 61.9%
Activity [30]: 50%
Activity [35]: 10.9%

O=C1C[C@@H]2OCC=C3CN4CC[C@]56c7ccccc7N1[C@H]5[C@H]2[C@H]3C[C@H]46 [STRYCHNINE SULFATE]
zone of inhibition at 100 µg/disc [36]: 0 mm
zone of inhibition at 100 µg/disc [37]: 0 mm
zone of inhibition at 100 µg/disc [38]: 0 mm
zone of inhibition at 100 µg/disc [39]: 0 mm
zone of inhibition at 100 µg/disc [40]: 0 mm
zone of inhibition at 100 µg/disc [41]: 0 mm
zone of inhibition at 100 µg/disc [42]: 0 mm
zone of inhibition at 100 µg/disc [43]: 0 mm
zone of inhibition at 100 µg/disc [44]: 0 mm
zone of inhibition at 100 µg/disc [45]: 0 mm
zone of inhibition at 100 µg/disc [46]: 0 mm
zone of inhibition at 100 µg/disc [47]: 0 mm
zone of inhibition at 100 µg/disc [48]: 0 mm
zone of inhibition at 100 µg/disc [49]: 0 mm
zone of inhibition at 100 µg/disc [50]: 0 mm
zone of inhibition at 100 µg/disc [51]: 0 mm

O=C1C[C@@H]2OCC=C3CN4CC[C@]56c7ccccc7N1[C@H]5[C@H]2[C@H]3C[C@H]46 [STRYCHNINE]
Activity [52]: Not Active
Activity [53]: Not Active

CC[C@]1(O)C[C@@H]2CN(CCc3c([nH]c4ccccc34)[C@@](C(=O)OC)(c3cc4c(cc3OC)N(C)[C@H]3[C@@](O)(C(=O)OC)[C@H](OC(C)=O)[C@]5(CC)C=CCN6CC[C@]43[C@@H]65)C2)C1 [VINBLASTINE]
Activity [52]: Not Active
Activity [53]: Not Active
